Each block holds one compound with its values, some of them ahead of it.
Tests used:
[1] = test system: T. cruzi, strain Tulahuen C4 amastigotes; assay: In vitro activity against T. cruzi intracellular amastigotes in L6 host cells; format: cell-based, Trypanosoma cruzi; conditions: for IC50: Trypanosoma cruzi, TULAHUEN, L6, read-out: T. cruzi IC-50; for Selectivity: IC50 in L6 cells/IC50 in T. cruzi, compounds 9–13
[2] = test system: guinea pigs; conditions: guinea pigs treated with Bnz; cited from earlier work
[3] = test system: S. typhimurium strains; conditions: cited from earlier work
[4] = Cytotoxicity assessment in the host L6 cells; format: cell-based; conditions: rat, L6 cells (rat skeletal myoblasts)
[5] = test system: transgenic T. cruzi Y strain expressing firefly luciferase; assay: In vivo anti-T. cruzi fast luminescence assay in infected Balb/c mice; set-up: species or system Trypanosoma cruzi; conditions: for in vivo antichagasic activity compared with Bnz: 10-day treatment, Bnz 15 mg/kg/day
[6] = test system: Balb/c mice; assay: Apparent toxicity in treated T. cruzi-infected mice; format: in vivo; conditions: 30 mg/kg/day i.p., 5- and 10-day treatment
[7] = Microsomal stability screen; format: in vitro ADME; conditions: mouse, microsomes, 1 h, 1 µM, pH 7.4
[8] = Plasma stability screen; format: in vitro ADME, mouse; conditions: 5 µM
[9] = Caco-2 monolayer permeability; conditions: human
[10] = in vitro; conditions: human, Caco-2
[11] = logD at pH 6; threshold for high permeability; cited from earlier work
[12] = test system: zebrafish embryos; assay: Toxicity studies in zebrafish embryos; conditions: incubation of embryos; data not shown
[13] = i.p., 5–10 days treatment at the doses of Figure 1, more than 80 and up to 100%

Compound: O=C(Cn1ccnc1[N+](=O)[O-])NCc1ccccc1 [Bnz, benznidazole]
IC50 [1]: 1.43 µM | mutagenic derivatives in serum and urine detectable by the Ames test [2]: not metabolized by the mammalian host into stable mutagenic derivatives | concentrations showing significant mutagenicity [3]: < 62 µg/mL

Compound: Cl.O=[N+]([O-])c1ncn(CCCNCCc2cccc(C(F)(F)F)c2)n1 [Compound 9, [3-(3-nitro-1H-1,2,4-triazol-1-yl)propyl] ({2-[3-(trifluoromethyl)phenyl]ethyl})amine hydrochloride]
Selectivity [1]: 116 | IC50 [1]: 0.775 µM | IC50 [4]: 90.1 µM | drop of parasite index ([5]; 30 mg/kg/day i.p., after 5-day treatment): about 88% | drop of parasite index ([5]; 30 mg/kg/day i.p., after 10-day treatment): ~85% | drop of parasite index [5, 13]: more than 80% | toxicity in treated mice [6]: without any sign of toxicity

Compound: O=[N+]([O-])c1ncn(CCCNc2nc3ccc(Cl)cc3s2)n1 [Compound 10, 6-chloro-N-[3-(3-nitro-1H-1,2,4-triazol-1-yl)propyl]-1,3-benzothiazol-2-amine]
Selectivity [1]: 1725 | IC50 [1]: 0.059 µM | IC50 [4]: 102 µM | in vivo antichagasic activity ([5]; 10 mg/kg/day i.p., 5- or 10-day treatment): failed to demonstrate in vivo antichagasic activity | Mean remaining parent comp (+)NADPH [7]: 1.0% | Mean remaining parent comp (−)NADPH [7]: 108% | Mean remaining parent comp ([8]; mouse plasma, 60 min, 37°C): 87.3%

Compound: O=[N+]([O-])c1ncn(CCCCNS(=O)(=O)c2ccc(Cl)s2)n1 [Compound 11, 5-chloro-N-[4-(3-nitro-1H-1,2,4-triazol-1-yl)butyl]thiophene-2-sulfonamide]
Selectivity [1]: 277.5 | IC50 [1]: 0.462 µM | IC50 [4]: 128 µM | parasite signal ([5]; 15 mg/kg/day i.p., after 10 days of treatment, greater activity than Bnz): no detectable parasite signal | drop of parasite index [5, 13]: more than 80%

Compound: O=[N+]([O-])c1ncn(CCCCNS(=O)(=O)c2cc(Cl)c(Cl)s2)n1 [Compound 12, 4,5-dichloro-N-[4-(3-nitro-1H-1,2,4-triazol-1-yl)butyl]thiophene-2-sulfonamide]
Selectivity [1]: 261.1 | IC50 [1]: 0.373 µM | IC50 [4]: 97.3 µM | in vivo antichagasic activity compared with Bnz ([5]; 15 mg/kg/day i.p.): failed to perform better than Bnz

Compound: O=C(NCCCCn1cnc([N+](=O)[O-])n1)c1nc2ccccc2s1 [Compound 13, N-[4-(3-nitro-1H-1,2,4-triazol-1-yl)butyl]-1,3-benzothiazole-2-carboxamide]
Selectivity [1]: 364.4 | IC50 [1]: 0.422 µM | IC50 [4]: 154 µM | in vivo antichagasic activity compared with Bnz ([5]; 15 mg/kg/day i.p.): failed to perform better than Bnz

Mean remaining parent comp ([8]; mouse plasma, 60 min, 37°C): 30.4%
Compound: CC(C)[N+](C)(CCOC(=O)C1c2ccccc2Oc2ccccc21)C(C)C [Propantheline]

Papp A→B at 2 h, 10 µM [9]: 0.5 ×10⁻⁶ cm/s
Compound: CNC(=C[N+](=O)[O-])NCCSCc1ccc(CN(C)C)o1 [Ranitidine]

Mean remaining parent comp (+)NADPH [7]: 83.9% | Mean remaining parent comp ([8]; mouse, plasma, 1 h): 97.8% | Papp A→B at 2 h, 10 µM [10]: 44.2 ×10⁻⁶ cm/s
Compound: CC(=O)CC(c1ccccc1)c1c(O)c2ccccc2oc1=O (stereo not shown) [Warfarin]

Compound: CC(CCc1ccccc1)NCC(O)c1ccc(O)c(C(N)=O)c1 (stereo not shown) [labetalol]
logD6 [11]: −0.42

Compound: CC1CS(=O)(=O)CCN1/N=C/c1ccc([N+](=O)[O-])o1 (stereo not shown) [nifurtimox]
effect on zebrafish embryos' development [12]: weakened heart beat, pericardial oedema or death
